The values that follow come from patent US20250276972A1, “COMPOUNDS AS CASEIN KINASE INHIBITORS” (GRITSCIENCE BIOPHARMACEUTICALS CO.,LTD., priority 2020, published 2025).

SMILES strings stand for the structures.

Data set [1] is described as follows: Intrinsic clearance in liver microsomes (mouse). In kind it is in vitro ADME. Conditions: Mouse liver microsomes 0.5 mg/mL, 2 μM compound, 37° C.; for microsomal CLint at 2 μM: read-out: in vitro CLint (μL/min/mg protein); for half-life at 2 μM: read-out: in vitro t1/2. How it is done: (§1) • 1. The master solution was prepared according to Table 5.
(§2) • 2. Three separated experiments were performed as follows. a) With NADPH: 10 μL of 20 mg/mL liver microsomes and 40 μL of 10 mM NADPH were added to the incubations. The final concentrations of microsomes and NADPH were 0.5 mg/mL and 1 mM, respectively. b) Without NADPH: 10 μL of 20 mg/mL liver microsomes and 40 μL of ultra-pure H2O were added to the incubations. The final concentration of microsomes was 0.5 mg/mL. c) Heat-inactivated microsomes without NADPH: 10 μL of 20 mg/mL heat-inactivated liver microsomes and 40 μL of ultra-pure H2O were added to the incubations. The final concentration of microsomes was 0.5 mg/mL. • 3. The reaction was started with the addition of 4 μL of 200 μM test compound solution or control compound solution at the final concentration of 2 μM and carried out at 37° C. • 4. Aliquots of 50 μL were taken from the reaction solution at 0, 15, 30, 45 and 60 min. […] Samples were centrifuged at 3, 220 g for 40 minutes. […] Data Analysis
(§3) Peak areas were determined from extracted ion chromatograms. The slope value, k, was determined by linear regression of the natural logarithm of the remaining percentage of the parent drug vs. incubation time curve.
(§4) The in vitro half-life (in vitro t1/2) was determined from the slope value:
(§5) Conversion of the in vitro t1/2 (min) into the in vitro intrinsic clearance (in vitro CLint, in μL/min/mg protein) was done using the following equation (mean of duplicate determinations): […]
(In general: Liver microsomes are a subcellular fraction often used to study metabolism.)

Data set [2] can be described thus: Intrinsic clearance in liver microsomes (human). Conditions: Human liver microsomes 0.5 mg/mL, 2 μM compound, 37° C.; for microsomal CLint at 2 μM: read-out: in vitro CLint (μL/min/mg protein); for half-life at 2 μM: read-out: in vitro t1/2. It is filed as in vitro ADME. As to the method: as §1, §2, §3, §4, §5
For data set [3], the target named is T1, CK1δ (Homo sapiens, UniProt P48730).
T1 construct: endogenous in cells; host or cells: Bmal1-dLuc or Per2-dLuc U2OS cells
T1 sequence (P48730 whole entry): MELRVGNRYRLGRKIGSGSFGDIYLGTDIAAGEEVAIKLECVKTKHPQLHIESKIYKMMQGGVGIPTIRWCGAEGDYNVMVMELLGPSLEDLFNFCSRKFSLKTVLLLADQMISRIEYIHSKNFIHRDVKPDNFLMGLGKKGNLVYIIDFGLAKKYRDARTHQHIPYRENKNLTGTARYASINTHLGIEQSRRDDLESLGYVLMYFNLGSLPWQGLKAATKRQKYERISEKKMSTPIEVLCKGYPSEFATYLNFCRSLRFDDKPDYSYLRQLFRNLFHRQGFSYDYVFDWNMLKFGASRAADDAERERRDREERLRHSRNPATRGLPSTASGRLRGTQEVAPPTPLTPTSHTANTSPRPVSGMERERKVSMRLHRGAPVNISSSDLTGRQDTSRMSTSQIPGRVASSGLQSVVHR
In words: CK1δ inhibition (EC50); Bmal1-dLuc or Per2-dLuc U2OS luminescence rhythm period assay. In kind it is cell-based. Conditions: Table 3. As to the method: Bmall-dLuc or Per2-dLuc U2OS cells were suspended in the culture medium (DMEM supplemented with 10% fetal bovine serum, 0.29 mg/mL L-glutamine, 100 units/mL penicillin, and […] streptomycin) and plated onto 96-well white solid-bottom plates at 200 μL (10,000 cells) per well. After 2 days, 100 μL of the explant medium (DMEM supplemented with 2% B27, 10 mM HEPES, 0.38 mg/mL sodium bicarbonate, 0.29 mg/mL L-glutamine, 100 units/mL penicillin, […], 0.1 mg/mL gentamicin, and 1 mM luciferin, pH 7.2) was dispensed to each well, followed by the application of 1 μL of a compound of the present application (dissolved in DMSO; final concentration was 0.7% in DMSO). The plate was covered with an optically clear film and set to microplate reader (Infinite M200, Tecan).

The target of data set [4] is wild type CK1δ (Homo sapiens, UniProt P48730). In words: CK1δ kinase assay (Kinase-Glo). In kind it is biochemical. Conditions: 10 μM ATP, 2 nM wild type CK1δ, 85 min at 25° C. How it is done: The reaction mixture was incubated for 85 min at 25° C.; detection was carried out as described for the Kinase-Glo Assay (Promega). Luminescent output was measured on the Perkin Elmer Envision plate reader (PerkinElmer, Waltham, MA).
wild type CK1δ, sequence (P48730 whole entry): as above
A general note: Kinase-Glo measures the ATP left after a reaction by luminescence.

As usually defined, the EC50 is the concentration needed to bring the measured effect to its halfway point. The IC50 is the concentration that gives 50% inhibition. Read a high IC50 as lower potency.

Regarding `Cc1cc(-c2c(-c3ccc(F)cc3)nn3c2CN(Cc2ncccn2)CC3)ccn1` [Compound I-9, 2-(4-fluorophenyl)-3-(2-methylpyridin-4-y)-5-(pyrimidin-2-ylmethyl)-4,5,6,7-tetrahydropyrazolo[1,5-a]pyrazine], in data set [1], the microsomal CLint at 2 μM came out at 43.4 µL/min/mg and the half-life at 2 μM came to 31.9 min. Further, in data set [2], the microsomal CLint at 2 μM came out at 12.4 µL/min/mg and the half-life at 2 μM was 112 min.
Consider `Cc1cc(-c2c(-c3ccc(F)cc3)nn3c2CN(CCO)CC3)ccn1` [Compound I-11, 2-(2-(4-fluorophenyl)-3-(2-methylpyridin-4-yl)-6,7-dihydropyrazolo[1,5-a]pyrazin-5. (4H)-yl)ethan-1-ol], for which the microsomal CLint at 2 μM in data set [1] is 16.3 µL/min/mg; in data set [2] it was 8.74 µL/min/mg. Besides, the values for the half-life at 2 μM in data set [1] and in data set [2] were 84.9 min and 159 min, respectively.
For `CC(=O)Nc1cc(-c2c(-c3ccc(F)cc3)nn3c2CN(C2CCC2)CC3)ccn1` [Compound I-33, N-(4-(5-cyclobutyl-2-(4-fluorophenyl)-4,5,6,7-tetrahydropyrazolo[1,5-a]pyrazin-3-yl)pyridin-2-yl)acetamide], the microsomal CLint at 2 μM in data set [1] worked out at 1040 µL/min/mg; in data set [2], 274 µL/min/mg. Besides, the half-life at 2 μM in data set [1] stood at 1.33 min; in data set [2] it was 5.06 min. In data set [3], this molecule gave an EC50 of 500 nM.
`COCCN1CCn2nc(-c3ccc(F)cc3)c(-c3ccnc(NC(C)=O)c3)c2C1` [Compound I-40, N-(4-(2-(4-fluorophenyl)-5-(2-methoxyethyl)-4,5,6.7-tetrahydropyrazolo[1,5-a]pyrazin-3-yl)pyridin-2-yl)acetamide]: in data set [1], the microsomal CLint at 2 μM came out at 532 µL/min/mg and the half-life at 2 μM was found to be 2.61 min. Besides, in data set [2], the microsomal CLint at 2 μM turned out to be 52.5 µL/min/mg and the half-life at 2 μM was found to be 26.4 min. In data set [3], this molecule gave a concentration for a half-maximal effect (EC50) of 700 nM.
In the case of `CC(=O)Nc1cc(-c2c(-c3ccc(F)cc3)nn3c2CN(CCF)CC3)ccn1` [Compound I-42, N-(4-(5-(2-fluoroethyl)-2-(4-fluorophenyl)-4,5,6,7-tetrahydropyrazolo[1,5-a]pyrazin-3-yl)pyridin-2-yl)acetamide], in data set [1], the microsomal CLint at 2 μM was 975 µL/min/mg and the half-life at 2 μM was 1.42 min. Further, in data set [2], the microsomal CLint at 2 μM is 47.4 µL/min/mg and the half-life at 2 μM was determined as 29.2 min. The same molecule registered an EC50 in data set [3] of 400 nM.
Regarding `CC(=O)Nc1cc(-c2c(-c3ccc(F)cc3)nn3c2CN(C2CC(O)C2)CC3)ccn1` (centres unmarked) [Compound I-44, N-(4-(2-(4-fluorophenyl)-5-(3-hydroxycyclobutyl)-4,5,6,7-tetrahydropyrazolo[1,5-a]pyrazin-3-yl)pyridin-2-yl)acetamide], in data set [1], the microsomal CLint at 2 μM came out at 20.5 µL/min/mg and the half-life at 2 μM was found to be 67.5 min. In data set [2], the microsomal CLint at 2 μM worked out at 4.98 µL/min/mg and the half-life at 2 μM turned out to be 278 min. The molecule also yielded a concentration for a half-maximal effect (EC50) in data set [3] of 800 nM.
Consider `CC(=O)N1CCn2nc(-c3ccc(F)cc3)c(-c3cc(N)ncn3)c2C1` [Compound I-63, 1-(3-(6-aminopyrimidin-4-yl)-2-(4-fluorophenyl)-6,7-dihydropyrazolo[1,5-a]pyrazin-5(4H)-yl)ethan-1-one], for which half-maximal inhibition in data set [4] (IC50) was put at 28900 nM.
In the case of `CC(=O)N1CCn2nc(-c3ccc(F)cc3)c(-c3ccnc(NC(=O)C4(c5ccc(F)cc5)CC4)c3)c2C1` [Compound I-77, N-(4-(5-acetyl-2-(4-fluorophenyl)-4,5,6,7-tetrahydropyrazolo[1,5-a]pyrazin-3-yl)pyridin-2-yl)-1-(4-fluorophenyl)cyclopropane-1-carboxamide], the results for the microsomal CLint at 2 μM in data set [1] and in data set [2] were 152 µL/min/mg and 25.2 µL/min/mg, respectively. Moreover, the values for the half-life at 2 μM in data set [1] and in data set [2] were 9.14 min and 55 min, respectively. The same molecule gave a half-maximal effective concentration (EC50) in data set [3] of 2000 nM.
For `CN1CCn2nc(-c3ccc(F)cc3)c(-c3ccnc(NC(=O)Cc4ccc(F)cc4)c3)c2C1` [Compound I-80, 2-(4-fluorophenyl)-N-(4-(2-(4-fluorophenyl)-5-methyl-4,5,6,7-tetrahydropyrazolo [1,5-a]pyrazin-3-yl)pyridin-2-yl)acetamide] the same measures were 552 µL/min/mg, 112 µL/min/mg, 2.51 min, 12.3 min and 100 nM.
For `CC(=O)N1CCn2nc(-c3ccc(F)cc3)c(-c3ccnc(NC(=O)C(C)c4ccc(F)cc4)c3)c2C1` (centres unmarked) [Compound I-82, N-(4-(5-acetyl-2-(4-fluorophenyl)-4,5,6,7-tetrahydropyrazolo[1,5-a]pyrazin-3-yl)pyridin-2-yl)-2-(4-fluorophenyl)propanamide], in that order: 453 µL/min/mg, 16.5 µL/min/mg, 3.06 min, 84.1 min and 100 nM.
`CN1CCn2nc(-c3ccc(F)cc3)c(-c3ccnc(NC(=O)C4CC4)c3)c2C1` [Compound I-89, N-(4-(2-(4-fluorophenyl)-5-methyl-4,5,6,7-tetrahydropyrazolo[1,5-a]pyrazin-3-yl)pyridin-2-yl)cyclopropanecarboxamide]: in data set [1], the microsomal CLint at 2 μM came out at 665 µL/min/mg and the half-life at 2 μM turned out to be 2.09 min. In data set [2], the microsomal CLint at 2 μM stood at 94.3 µL/min/mg and the half-life at 2 μM was 14.7 min. Further, in data set [3], the half-maximal effective concentration (EC50) came out at 700 nM.
As for `CC(=O)N1CCn2nc(-c3ccc(F)cc3)c(-c3ccnc(NCC(F)(F)F)c3)c2C1` [Compound I-96, 1-(2-(4-fluorophenyl)-3-(2-((2,2,2-trifluoroethyl)amino)pyridin-4-yl)-6,7-dihydropyrazolo [1,5-a]pyrazin-5(4H)-yl)ethan-1-one], in data set [1], the microsomal CLint at 2 μM worked out at 10 µL/min/mg and the half-life at 2 μM came to 138 min. Further, in data set [2], the microsomal CLint at 2 μM was 3.74 µL/min/mg and the half-life at 2 μM amounted to 370 min. In data set [3], the EC50 was 4500 nM.
`CC(=O)Nc1cc(-c2c(-c3ccc(F)cc3)nn3c2CNCC3)ccn1` [Compound I-99, N-(4-(2-(4-fluorophenyl)-4,5,6,7-tetrahydropyrazolo[1,5-a]pyrazin-3-yl)pyridin-2-yl)acetamide]: the concentration for a half-maximal effect (EC50) in data set [3] is 700 nM.
For `CCC(C)C(=O)Nc1cc(-c2c(-c3ccc(F)cc3)nn3c2CN(C)CC3)ccn1` (centres unmarked) [Compound I-100, N-(4-(2-(4-fluorophenyl)-5-methyl-4,5,6,7-tetrahydropyrazolo[1,5-a]pyrazin-3-yl)pyridin-2-yl)-2-methylbutanamide], the microsomal CLint at 2 μM in data set [1] came out at 465 µL/min/mg; in data set [2], 68.2 µL/min/mg. The half-life at 2 μM in data set [1] is 2.98 min; in data set [2], 20.3 min. The EC50 in data set [3] stood at 600 nM.
Consider `CC(=O)N1CCn2nc(-c3ccc(F)cc3)c(-c3ccnc(Nc4ccncc4)c3)c2C1` [Compound I-101, 1-(2-(4-fluorophenyl)-3-(2-(pyridin-4-ylamino)pyridin-4-yl)-6,7-dihydropyrazolo[1,5-a]pyrazin-5(4H)-yl)ethan-1-one], for which the concentration giving a half-maximal response (EC50) in data set [3] is 2200 nM.
Take `CC(C)C(=O)Nc1cc(-c2c(-c3ccc(F)cc3)nn3c2CN(C)CC3)ccn1` [Compound I-102, N-(4-(2-(4-fluorophenyl)-5-methyl-4,5,6,7-tetrahydropyrazolo[1,5-a]pyrazin-3-yl)pyridin-2-yl)isobutyramide]: in data set [1], the microsomal CLint at 2 μM is 611 µL/min/mg and the half-life at 2 μM came out at 2.27 min. In data set [2], the microsomal CLint at 2 μM stood at 29.9 µL/min/mg and the half-life at 2 μM is 46.4 min. For the same molecule, the EC50 in data set [3] was 700 nM.
For `CCC(=O)Nc1cc(-c2c(-c3ccc(F)cc3)nn3c2CN(C)CC3)ccn1` [Compound I-103, N-(4-(2-(4-fluorophenyl)-5-methyl-4,5,6,7-tetrahydropyrazolo[1,5-a]pyrazin-3-yl)pyridin-2-yl)propionamide], in that order: 679 µL/min/mg, 2.04 min, 49.8 µL/min/mg, 27.8 min and 500 nM.
